Experiment: xn = mol fraction of the nth substance listed
Conditions: 101 kPa, Liquid; for mass density: Vibrating tube method

NCCO.O=CO [2-hydroxyethylammonium formate] + CCO
Conditions | mass density [kg/m3] | speed of sound [m/s]
288.15 K, x2 = 0 | 1183.57 | 1733.9
288.15 K, x2 = 0.058 | 1172.99 | 1741.5
288.15 K, x2 = 0.098 | 1161.05 | 1723
288.15 K, x2 = 0.193 | 1135.72 | 1681.5
288.15 K, x2 = 0.296 | 1110.04 | 1639
288.15 K, x2 = 0.399 | 1079.51 | 1587.5
288.15 K, x2 = 0.5 | 1044.58 | 1529.7
288.15 K, x2 = 0.598 | 1006.57 | 1468.7
288.15 K, x2 = 0.701 | 963.374 | 1402.4
288.15 K, x2 = 0.799 | 914.502 | 1333.5
288.15 K, x2 = 0.9 | 859.222 | 1261.8
288.15 K, x2 = 0.95 | 828.585 | 1223.4
290.65 K, x2 = 0 | 1181.81 | 1727.4
290.65 K, x2 = 0.058 | 1171.33 | 1736.2
290.65 K, x2 = 0.098 | 1159.38 | 1717.6
290.65 K, x2 = 0.193 | 1134.02 | 1675.9
290.65 K, x2 = 0.296 | 1108.32 | 1633.2
290.65 K, x2 = 0.399 | 1077.76 | 1581.4
290.65 K, x2 = 0.5 | 1042.78 | 1523.3
290.65 K, x2 = 0.598 | 1004.72 | 1461.9
290.65 K, x2 = 0.701 | 961.474 | 1395.3
290.65 K, x2 = 0.799 | 912.536 | 1326
290.65 K, x2 = 0.9 | 857.183 | 1253.7
290.65 K, x2 = 0.95 | 826.503 | 1215
293.15 K, x2 = 0 | 1180.04 | 1721.3
293.15 K, x2 = 0.058 | 1169.68 | 1730.9
293.15 K, x2 = 0.098 | 1157.72 | 1712.2
293.15 K, x2 = 0.193 | 1132.33 | 1670.3
293.15 K, x2 = 0.296 | 1106.6 | 1627.4
293.15 K, x2 = 0.399 | 1076 | 1575.3
293.15 K, x2 = 0.5 | 1040.98 | 1517
293.15 K, x2 = 0.598 | 1002.88 | 1455.1
293.15 K, x2 = 0.701 | 959.571 | 1388.2
293.15 K, x2 = 0.799 | 910.569 | 1318.5
293.15 K, x2 = 0.9 | 855.141 | 1245.7
293.15 K, x2 = 0.95 | 824.416 | 1206.8
295.65 K, x2 = 0 | 1178.27 | 1715.1
295.65 K, x2 = 0.058 | 1168.03 | 1725.6
295.65 K, x2 = 0.098 | 1156.05 | 1706.8
295.65 K, x2 = 0.193 | 1130.64 | 1664.8
295.65 K, x2 = 0.296 | 1104.87 | 1621.7
295.65 K, x2 = 0.399 | 1074.24 | 1569.2
295.65 K, x2 = 0.5 | 1039.18 | 1510.6
295.65 K, x2 = 0.598 | 1001.03 | 1448.4
295.65 K, x2 = 0.701 | 957.67 | 1381.1
295.65 K, x2 = 0.799 | 908.602 | 1311
295.65 K, x2 = 0.9 | 853.093 | 1237.8
295.65 K, x2 = 0.95 | 822.326 | 1198.5
298.15 K, x2 = 0 | 1176.49 | 1709
298.15 K, x2 = 0.058 | 1166.37 | 1720.4
298.15 K, x2 = 0.098 | 1154.38 | 1701.5
298.15 K, x2 = 0.193 | 1128.94 | 1659.3
298.15 K, x2 = 0.296 | 1103.15 | 1615.9
298.15 K, x2 = 0.399 | 1072.49 | 1563.2
298.15 K, x2 = 0.5 | 1037.38 | 1504.3
298.15 K, x2 = 0.598 | 999.182 | 1441.7
298.15 K, x2 = 0.701 | 955.767 | 1374.1
298.15 K, x2 = 0.799 | 906.63 | 1303.6
298.15 K, x2 = 0.9 | 851.045 | 1229.8
298.15 K, x2 = 0.95 | 820.231 | 1190.2
300.65 K, x2 = 0 | 1174.71 | 1702.9
300.65 K, x2 = 0.058 | 1164.71 | 1715.2
300.65 K, x2 = 0.098 | 1152.72 | 1696.1
300.65 K, x2 = 0.193 | 1127.25 | 1653.7
300.65 K, x2 = 0.296 | 1101.44 | 1610.2
300.65 K, x2 = 0.399 | 1070.73 | 1557.2
300.65 K, x2 = 0.5 | 1035.58 | 1498
300.65 K, x2 = 0.598 | 997.335 | 1435.1
300.65 K, x2 = 0.701 | 953.861 | 1367
300.65 K, x2 = 0.799 | 904.657 | 1296.1
300.65 K, x2 = 0.9 | 848.99 | 1221.9
300.65 K, x2 = 0.95 | 818.13 | 1182
303.15 K, x2 = 0 | 1172.94 | 1696.8
303.15 K, x2 = 0.058 | 1163.06 | 1709.9
303.15 K, x2 = 0.098 | 1151.05 | 1690.8
303.15 K, x2 = 0.193 | 1125.56 | 1648.2
303.15 K, x2 = 0.296 | 1099.72 | 1604.4
303.15 K, x2 = 0.399 | 1068.98 | 1551.2
303.15 K, x2 = 0.5 | 1033.79 | 1491.7
303.15 K, x2 = 0.598 | 995.485 | 1428.4
303.15 K, x2 = 0.701 | 951.952 | 1360
303.15 K, x2 = 0.799 | 902.677 | 1288.7
303.15 K, x2 = 0.9 | 846.93 | 1214
303.15 K, x2 = 0.95 | 816.023 | 1173.8
305.65 K, x2 = 0 | 1171.16 | –
305.65 K, x2 = 0.058 | 1161.41 | –
305.65 K, x2 = 0.098 | 1149.39 | –
305.65 K, x2 = 0.193 | 1123.87 | –
305.65 K, x2 = 0.296 | 1098 | –
305.65 K, x2 = 0.399 | 1067.22 | –
305.65 K, x2 = 0.5 | 1031.98 | –
305.65 K, x2 = 0.598 | 993.634 | –
305.65 K, x2 = 0.701 | 950.042 | –
305.65 K, x2 = 0.799 | 900.694 | –
305.65 K, x2 = 0.9 | 844.863 | –
305.65 K, x2 = 0.95 | 813.907 | –

Reference: the NIST ThermoML archive (doi:10.1016/j.jct.2007.05.011)
